# Experiment: incidence of side effect (hematologic toxicity) by single nucleotide polymorphism genotype in Japanese patients with colon cancer who had received irinotecan
# Assay type: in vivo, human
# Method: By using TaqMan SNP Assays Human (manufactured by Applied Biosystems, Inc.) and LightCycler (R) 480 Probe Master (manufactured by Roche Diagnostics, Inc.), Universal ProbeLibrary (manufactured by Roche Diagnostics, Inc.), and LightCycler 480 System II (manufactured by Roche Diagnostics, Inc.), 10 ng of genomic DNA was subjected to genotyping. After incubation at 95° C. for 10 min, the sample was subjected to PCR amplification with 55 cycles for rs1980576, rs2272761, and rs9425343, 45 cycles for rs12577167, rs7265854, and rs1135640, or 40 cycles for rs1547 (1 cycle consisted of 92° C. for 15 sec and 60° C. for 60 sec). The fluorescence emitted from the PCR products were measured.
# The “Odds ratio” in Table 3 refers to an odds ratio indicating the occurrence of a side effect as calculated using a Fisher's exact test on a single nucleotide polymorphism being homozygous for a wild-type or homozygous for a variant type.
# The term (P value/C.-A.) in Table 4 is the same as in Table 2. […] The term “Odds ratio” in Table 5 is the same as in Table 3.
# [1] = N = 72, homozygous UGT1A1*28 excluded (Table 5), ACOX1 rs1135640 G/G
# [2] = N = 72, homozygous UGT1A1*28 excluded, ACOX1 rs1135640 C/C, C/G
# [3] = N = 72, homozygous UGT1A1*28 excluded, APCDD1L rs1980576 A/A
# [4] = N = 72, homozygous UGT1A1*28 excluded, APCDD1L rs1980576 A/A, A/G
# [5] = N = 72, homozygous UGT1A1*28 excluded, APCDD1L rs1980576 A/G, G/G
# [6] = N = 72, homozygous UGT1A1*28 excluded, APCDD1L rs1980576 G/G
# [7] = N = 72, homozygous UGT1A1*28 excluded, APCDD1L rs7265854 C/C
# [8] = N = 72, homozygous UGT1A1*28 excluded, APCDD1L rs7265854 T/T, T/C
# [9] = N = 72, homozygous UGT1A1*28 excluded, EDEM3 rs9425343 T/G, G/G
# [10] = N = 72, homozygous UGT1A1*28 excluded, EDEM3 rs9425343 T/T
# [11] = N = 72, homozygous UGT1A1*28 excluded, R3HCC1 rs2272761 G/A, A/A
# [12] = N = 72, homozygous UGT1A1*28 excluded, R3HCC1 rs2272761 G/G
# [13] = N = 72, homozygous UGT1A1*28 with reduced amount of irinotecan excluded (Table 4), ACOX1 rs1135640 C/C
# [14] = N = 72, homozygous UGT1A1*28 with reduced amount of irinotecan excluded (Table 4), ACOX1 rs1135640 C/G
# [15] = N = 72, homozygous UGT1A1*28 with reduced amount of irinotecan excluded (Table 4), ACOX1 rs1135640 G/G
# [16] = N = 73, homozygous UGT1A1*28 with reduced amount of irinotecan excluded, APCDD1L rs1980576 A/A
# [17] = N = 73, homozygous UGT1A1*28 with reduced amount of irinotecan excluded, APCDD1L rs1980576 A/G
# [18] = N = 73, homozygous UGT1A1*28 with reduced amount of irinotecan excluded, APCDD1L rs1980576 G/G
# [19] = N = 73, homozygous UGT1A1*28 with reduced amount of irinotecan excluded, APCDD1L rs7265854 A/A
# [20] = N = 73, homozygous UGT1A1*28 with reduced amount of irinotecan excluded, APCDD1L rs7265854 A/G
# [21] = N = 73, homozygous UGT1A1*28 with reduced amount of irinotecan excluded, APCDD1L rs7265854 G/G
# [22] = N = 73, homozygous UGT1A1*28 with reduced amount of irinotecan excluded, CSMD2 rs474474 A/A
# [23] = N = 73, homozygous UGT1A1*28 with reduced amount of irinotecan excluded, CSMD2 rs474474 A/G
# [24] = N = 73, homozygous UGT1A1*28 with reduced amount of irinotecan excluded, CSMD2 rs474474 G/G
# [25] = N = 73, homozygous UGT1A1*28 with reduced amount of irinotecan excluded, EDEM3 rs9425343 G/G
# [26] = N = 73, homozygous UGT1A1*28 with reduced amount of irinotecan excluded, EDEM3 rs9425343 T/G
# [27] = N = 73, homozygous UGT1A1*28 with reduced amount of irinotecan excluded, EDEM3 rs9425343 T/T
# [28] = N = 73, homozygous UGT1A1*28 with reduced amount of irinotecan excluded, GATA2 rs2335052 A/A
# [29] = N = 73, homozygous UGT1A1*28 with reduced amount of irinotecan excluded, GATA2 rs2335052 G/A
# [30] = N = 73, homozygous UGT1A1*28 with reduced amount of irinotecan excluded, GATA2 rs2335052 G/G
# [31] = N = 73, homozygous UGT1A1*28 with reduced amount of irinotecan excluded, MKKS rs1547 C/C
# [32] = N = 73, homozygous UGT1A1*28 with reduced amount of irinotecan excluded, MKKS rs1547 C/T
# [33] = N = 73, homozygous UGT1A1*28 with reduced amount of irinotecan excluded, MKKS rs1547 T/T
# [34] = N = 73, homozygous UGT1A1*28 with reduced amount of irinotecan excluded, OR51I2 rs12577167 A/A
# [35] = N = 73, homozygous UGT1A1*28 with reduced amount of irinotecan excluded, OR51I2 rs12577167 A/G
# [36] = N = 73, homozygous UGT1A1*28 with reduced amount of irinotecan excluded, OR51I2 rs12577167 G/G
# [37] = N = 73, homozygous UGT1A1*28 with reduced amount of irinotecan excluded, R3HCC1 rs2272761 A/A
# [38] = N = 73, homozygous UGT1A1*28 with reduced amount of irinotecan excluded, R3HCC1 rs2272761 G/A
# [39] = N = 73, homozygous UGT1A1*28 with reduced amount of irinotecan excluded, R3HCC1 rs2272761 G/G
compound,measurement,setting,value
"CCc1c2c(nc3ccc(OC(=O)N4CCC(N5CCCCC5)CC4)cc13)-c1cc3c(c(=O)n1C2)COC(=O)[C@]3(O)CC [irinotecan, 1,4′-Bipiperidine-1′-carboxylic acid (S)-4,11-diethyl-3,4,12,14-tetrahydro-4-hydroxy-3,14-dioxo-1H-pyrano[3′,4′:6,7]indolizino[1,2-b]quinolin-9-yl ester]",Toxicity No,[1],21
same,Toxicity Yes,[1],8
same,Toxicity No,[2],17
same,Toxicity Yes,[2],26
same,Toxicity No,[3],16
same,Toxicity Yes,[3],6
same,Toxicity No,[4],35
same,Toxicity Yes,[4],26
same,Toxicity No,[5],22
same,Toxicity Yes,[5],28
same,Toxicity No,[6],3
same,Toxicity Yes,[6],8
same,Toxicity No,[7],8
same,Toxicity Yes,[7],1
same,Toxicity No,[8],30
same,Toxicity Yes,[8],33
same,Toxicity No,[9],31
same,Toxicity Yes,[9],21
same,Toxicity No,[10],7
same,Toxicity Yes,[10],13
same,Toxicity No,[11],32
same,Toxicity Yes,[11],34
same,Toxicity No,[12],6
same,Toxicity Yes,[12],0
same,Toxicity No,[13],3
same,Toxicity Yes,[13],8
same,Toxicity No,[14],14
same,Toxicity Yes,[14],18
same,Toxicity No,[15],21
same,Toxicity Yes,[15],8
same,Toxicity No,[16],16
same,Toxicity Yes,[16],6
same,Toxicity No,[17],20
same,Toxicity Yes,[17],20
same,Toxicity No,[18],3
same,Toxicity Yes,[18],8
same,Toxicity No,[19],13
same,Toxicity Yes,[19],18
same,Toxicity No,[20],18
same,Toxicity Yes,[20],15
same,Toxicity No,[21],8
same,Toxicity Yes,[21],1
same,Toxicity No,[22],16
same,Toxicity Yes,[22],22
same,Toxicity No,[23],18
same,Toxicity Yes,[23],8
same,Toxicity No,[24],5
same,Toxicity Yes,[24],4
same,Toxicity No,[25],10
same,Toxicity Yes,[25],5
same,Toxicity No,[26],21
same,Toxicity Yes,[26],16
same,Toxicity No,[27],8
same,Toxicity Yes,[27],13
same,Toxicity No,[28],5
same,Toxicity Yes,[28],5
same,Toxicity No,[29],20
same,Toxicity Yes,[29],12
same,Toxicity No,[30],14
same,Toxicity Yes,[30],17
same,Toxicity No,[31],20
same,Toxicity Yes,[31],10
same,Toxicity No,[32],16
same,Toxicity Yes,[32],19
same,Toxicity No,[33],3
same,Toxicity Yes,[33],5
same,Toxicity No,[34],19
same,Toxicity Yes,[34],23
same,Toxicity No,[35],14
same,Toxicity Yes,[35],10
same,Toxicity No,[36],6
same,Toxicity Yes,[36],1
same,Toxicity No,[37],22
same,Toxicity Yes,[37],24
same,Toxicity No,[38],11
same,Toxicity Yes,[38],10
same,Toxicity No,[39],6
same,Toxicity Yes,[39],0
same,irinotecan side effect observed,of 68 cases considered to have a low risk of a side effect in view of the UGT1A gene polymorphisms,29 cases
